Experimental data: patent publication US20230034660A1, “PEPTIDES THAT ENHANCE NMDA RECEPTOR FUNCTION AND USE THEREOF” (University of Pittsburgh - Of the Commonwealth System of …, priority 2019, published 2023)

Tested on: presynaptic release of glutamate
Test: Paired pulse ratio and coefficient of variance of AMPAR responses (release probability)
Format: cell-based, mice
Conditions: peptide-treated slices; for paired pulse ratio (PPR): AMPAR EPSCs, 50 millisecond interval; for coefficient of variance (CV): AMPAR responses
Procedure: For brain slice recordings, whole-cell recordings of NMDAR EPSCs in slice DCN cartwheel cells were obtained with micropipettes (3-6 MΩ) containing 128 mM Cs(CH3O3S), 4 mM MgCl2·6H2O, 4 mM Na2ATP, 10 mM HEPES, 0.3 mM Tris-GTP, 10 mM Tris-phosphocreatine, 1 mM CsEGTA, 1 mM, QX-314, 3 mM sodium ascorbate, pH=˜7.2, 300 mOsm. Cartwheel cells were identified by the presence of complex spikes (Zhang and Oertel, 1993; Golding and Oertel, 1997; Tzounopoulos et al., 2004) in cell-attached configuration before break-in or in response to current injections in current-clamp mode after break-in. NMDAR EPSCs were recorded in voltage clamp mode, at a holding potential of +40 mV, in the presence of DNQX (20 μM, AMPA and kainate receptor antagonist), SR95531. (20 μM, GABAAR antagonist), and strychnine (1 μM, GlyR antagonist), ZX1 (100 μM) was included in the pipette in experiments where noted. Whole-cell recordings of AMPAR EPSCs were obtained with micropipettes containing […], 4.5 mM MgCl2·6 H2O, 14 mM Tris-phosphocreatine, 9 mM HEPES, 0.1 mM EGTA, 4 mM Na2ATP, 0.3 mM Tris-GTP, 10 mM sucrose, pH=7.3, 295 mOsm. AMPA EPSCs were recorded in voltage clamp mode at a holding potential of −70 mV in the presence of SR9551. (20 μM, GABAAR antagonist) and strychnine (1 μM, GlyR antagonist). Both NMDAR and […] EPSCs were evoked using an Isoflex stimulator (A.M.P.I. 0.1 ms pulses) stimulating parallel fibers with voltage pulses through a theta glass electrode. Stimulus intensity was adjusted to a level that consistently evoked stable responses. For paired pulse experiments, inter-stimulus interval was 50 milliseconds. Once a stable response was established, ZX1 (100 μM) was added to the recording solution to measure the effect of zinc chelation on EPSCs. The series resistance was not compensated because the currents measured were relatively small, therefore there was minimum voltage clamp error. The series resistance was monitored during the recording by delivering −5 mV voltage steps for 50 milliseconds for each sweep. The peak current value (ΔIpeak) generated immediately after the step in the command potential was used to calculate series resistance (Rseries) using the following formula: Rseries=−5 mv/ΔIpeak. […] All values reported are animal-based values, in cases where multiple cells were recorded from the same animal preparation, the average of cells is presented (Lazic et al., 2018). […]
Next, it was evaluated whether a change in presynaptic release of glutamate could contribute to the observed actions of N2AZ on NMDAR-mediated synaptic currents. […] To measure PPR, two stimuli were given in rapid succession and the ratio of the second EPSC to the first was calculated. […]

| Sequence | paired pulse ratio (PPR) | coefficient of variance (CV) |
| --- | --- | --- |
| SNLSDSYDR [scN2AZ, reference compound] | 2.18±0.26 | 0.28±0.030 |
| NDSYLRSSL [Peptide N2AZ] | 2.29±0.07 | 0.26±0.031 |
